Test results taken from the supplement of paper PMC8967900.

Key:
Assay in all cases: selective drug sensitivity score (sDSS, relative to normal bone marrow) (sDSS (score)); higher = more potent and effective on the cell line relative to normal bone marrow cells
Conditions in all cases: 72 h
MN-60 = system: MN-60
COG-LL-332h = system: COG-LL-332h
NALM-6 = system: NALM-6
ALL-PO = system: ALL-PO
380 = system: 380
P30-OHKUBO = system: P30-OHKUBO
TMD5 = system: TMD5
MHH-CALL-2 = system: MHH-CALL-2
COG-LL-319h = system: COG-LL-319h
ALL-SIL = system: ALL-SIL
MHH-CALL-4 = system: MHH-CALL-4
MOLT-14 = system: MOLT-14
JURKAT = system: JURKAT
697 = system: 697
HPB-ALL = system: HPB-ALL
RCH-ACV = system: RCH-ACV
SEM cells = system: SEM cells
CCRF-CEM = system: CCRF-CEM
COG-LL-402h = system: COG-LL-402h
LC4-1 = system: LC4-1
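Further: ALL cell lines in 384-well plates, five doses spanning 10,000-fold, each plate scaled between vehicle and 100 µmol/L benzalkonium chloride controls, sDSS an adapted area-under-curve metric.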

Row | Compound | selective drug sensitivity score (MN-60) | selective drug sensitivity score (COG-LL-332h) | selective drug sensitivity score (NALM-6) | selective drug sensitivity score (ALL-PO) | selective drug sensitivity score 380 | selective drug sensitivity score (P30-OHKUBO) | selective drug sensitivity score (TMD5) | selective drug sensitivity score (MHH-CALL-2) | selective drug sensitivity score (COG-LL-319h) | selective drug sensitivity score (ALL-SIL) | selective drug sensitivity score (MHH-CALL-4) | selective drug sensitivity score (MOLT-14) | selective drug sensitivity score (JURKAT) | selective drug sensitivity score 697 | selective drug sensitivity score (HPB-ALL) | selective drug sensitivity score (RCH-ACV) | selective drug sensitivity score (SEM cells) | selective drug sensitivity score (CCRF-CEM) | selective drug sensitivity score (COG-LL-402h) | selective drug sensitivity score (LC4-1)
1 | CC(C)[C@H]1C(=O)N[C@@H](CCCNC(=N)N)C(=O)NCC(=O)N[C@@H](CC(=O)O)C(=O)N[C@H](Cc2ccccc2)C(=O)N1C [Cilengitide] (top concentration 10000 nM) | 0 | 0 | 0 | 0 | 11.3 | 4.2 | 7.5 | 7.1 | 0 | 0 | 5.5 | 0 | 0 | 0 | 0 | 0 | 0 | 0 | 0 | 0
2 | NC(=O)/C(=C/n1cnc(-c2cc(C(F)(F)F)cc(C(F)(F)F)c2)n1)c1cncnc1 [Eltanexor] (top concentration 10000 nM) | 0.06 | 9.46 | 10.6 | 11.4 | 13.6 | 11.8 | -1.84 | 11.4 | 8.46 | 10.3 | 6.76 | 15.4 | 9.76 | 13.2 | 5.86 | 12.7 | 3.96 | 9.66 | 12.1 | 8.16
3 | Cn1cc(-c2[nH]c3cc(NC(=O)[C@H](N)C4CCCCC4)cc4c3c2C=NNC4=O)cn1 (top concentration 10000 nM) | -1.82 | 4.98 | 6.28 | 9.28 | 8.68 | 9.08 | -0.12 | 3.48 | 11.5 | 9.18 | 0.88 | 2.68 | 3.48 | 9.38 | 9.68 | 11.5 | 7.28 | 6.08 | 7.08 | 7.58
4 | CNc1ncc2cc(-c3cc(NC(=O)NCCC(C)(C)C)c(F)cc3C)c(C)nc2n1 (top concentration 10000 nM) | -0.94 | 9.06 | 6.66 | 4.86 | 7.76 | 5.86 | 7.86 | 9.76 | 12.1 | 20.7 | 8.96 | 12.5 | 2.56 | 10.5 | 2.46 | 12.7 | 5.66 | 5.56 | 6.76 | 7.86
5 | CC(C)Nc1cc(-c2c[nH]c(C(=O)N[C@H](CO)c3cccc(Cl)c3)c2)c(Cl)cn1 [Ulixertinib] (top concentration 10000 nM) | -4.38 | 1.92 | 0.12 | 6.72 | -4.38 | -0.18 | 2.12 | 2.72 | -0.78 | 3.02 | 2.22 | 6.12 | -1.08 | 1.62 | -2.68 | 2.82 | 1.62 | 2.82 | -0.38 | 0.32
6 | CCN(CCO)CCCOc1ccc2c(Nc3cc(CC(=O)Nc4cccc(F)c4)[nH]n3)ncnc2c1 [AZD1152-HQPA] (top concentration 1000 nM) | -2.46 | 21.6 | 8.94 | 7.64 | 20.8 | 24.7 | 9.14 | 6.64 | 24.2 | 23.4 | 2.04 | 17.8 | -0.26 | 16.5 | 4.34 | 14 | 15.7 | 16.9 | 18.4 | 23.2
7 | CN[C@@H]1C[C@H]2O[C@@](C)([C@@H]1OC)n1c3ccccc3c3c4c(c5c6ccccc6n2c5c31)C(=O)N[C@H]4O [UCN-01] (top concentration 10000 nM) | 0.94 | 1.44 | 4.94 | 8.64 | 13.5 | 7.74 | -0.36 | 7.94 | 6.64 | 3.14 | 8.14 | 6.14 | 0.34 | 12.9 | 6.04 | 18 | 7.74 | 6.04 | 8.94 | 1.54
8 | CN(C(=O)c1ccc(F)cc1C(F)(F)F)C1CCN(c2nnc(-c3ccnn3C)c3ccccc23)CC1 [Taladegib] (top concentration 10000 nM) | -1.12 | 1.08 | 2.68 | -0.52 | 4.08 | -0.02 | -1.02 | 3.18 | 5.78 | 0.08 | -1.12 | -1.12 | 2.78 | 1.88 | 7.08 | -0.52 | -1.12 | -0.82 | -1.12 | 4.58
9 | O=C(O)c1ccc2c(c1)nc(Nc1cccc(Cl)c1)c1ccncc12 [Silmitasertib] (top concentration 10000 nM) | 3.7 | 4 | 4 | 1.9 | 7.7 | 1.8 | -2.2 | 6.6 | 15.8 | 6.2 | 2.2 | 4.1 | 3.2 | 3.5 | 1.9 | 0.8 | 1.4 | 4.1 | 0.2 | 3.9
